Laboratory results published in patent publication US20260226084A1, “DUAL RAF AND TUBULIN INHIBITORS AND METHODS OF USE THEREOF” (Deciphera Pharmaceuticals, LLC, priority 2023, published 2026).
Like-named read-outs stand apart in the source and are kept apart here.

Assays:
[1] = target: T1, B-Raf kinase (SEQ ID NO: 1) (Homo sapiens, UniProt P15056); experiment: Biochemical Assay for B-Raf (coupled pyruvate kinase/lactate dehydrogenase assay); settings: 1 mM ATP; read-out: BRAF (inhibition of biochemical activity, IC50)
T1 construct: GST (N); purchased Sigma

[2] = target: T2, C-Raf kinase (SEQ ID NO: 2) (Homo sapiens, UniProt P04049, Y340D/Y341D); experiment: Biochemical Assay for C-Raf (coupled pyruvate kinase/lactate dehydrogenase assay); settings: 1 mM ATP; read-out: CRAF (inhibition of biochemical activity, IC50)
T2 construct: C-Raf residues 306-end; Y340D, Y341D with; GST (N); purchased Sigma

[3] = tested on: MiaPaca-2 cells; experiment: MiaPaca-2 Cell Proliferation Assay; type: cell-based; settings: Table 2, read-out: Inhibition of cell proliferation in MiaPaca-2 (IC50 class)
How it was run: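 Viability was read as resazurin fluorescence (540 nm excitation, 600 nm emission) after 5–6 h with dye. Compounds were tested as serial dilutions in triplicate, with IC50 derived from the dose–response.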

[4] = tested on: HCT-116 cells; experiment: HCT-116 Cell Proliferation Assay; type: cell-based; settings: Table 2, read-out: Inhibition of cell proliferation in HCT-116 (IC50 class)
How it was run: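 IC50 values come from resazurin fluorescence (540 nm excitation, 600 nm emission) added for 4 to 5 h after compound treatment. Treatment: serially diluted compound in triplicate on 375 HCT-116 cells per well in complete McCoy's 5A/10% FBS, 67 to 72 hours, 37 °C, 5% CO2.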

[5] = tested on: HPAF-II cells; experiment: HPAF-II Cell Proliferation Assay; type: cell-based; settings: HPAF-II cells, Table 2, read-out: Inhibition of cell proliferation in HPAF-II (IC50 class)
How it was run: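 Viability read-out was resazurin fluorescence (540 nm excitation, 600 nm emission), developed 18–24 h after a 115–120 h compound exposure of 750 HPAF-II cells per well in MEM/10% FBS at 37 °C. Compound was tested as a serial dilution in triplicate, and IC50 values were calculated.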

[6] = tested on: Pa16c cells; experiment: Pa16c Cell Proliferation Assay; type: cell-based; settings: Table 2, read-out: Inhibition of cell proliferation in Pa16c (IC50 class)
How it was run: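 Proliferation read-out: resazurin fluorescence (540 nm excitation, 600 nm emission) after an extra 18 to 24 h. Before that, compound dilution series (triplicate) stayed on 750 Pa16c cells/well in complete DMEM/10% FBS for 67 to 72 h at 37° C. IC50 values derived from the curves.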

[7] = Homo sapiens, MIA PaCa-2, MiaPaca-2 cells
[8] = Homo sapiens, HCT-116, HCT-116 cells

T1 sequence (P15056 416-766): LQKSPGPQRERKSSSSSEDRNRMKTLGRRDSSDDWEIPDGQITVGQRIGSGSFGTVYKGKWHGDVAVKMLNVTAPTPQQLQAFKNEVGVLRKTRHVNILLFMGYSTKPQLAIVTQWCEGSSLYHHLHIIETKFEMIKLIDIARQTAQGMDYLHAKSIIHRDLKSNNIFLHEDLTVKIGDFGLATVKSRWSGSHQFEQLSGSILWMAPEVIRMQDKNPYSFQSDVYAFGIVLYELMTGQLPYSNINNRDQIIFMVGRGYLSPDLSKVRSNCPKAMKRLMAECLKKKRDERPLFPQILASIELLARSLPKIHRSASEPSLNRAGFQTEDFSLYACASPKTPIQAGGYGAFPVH
T2 sequence (P04049 307-648 Y340D/Y341D): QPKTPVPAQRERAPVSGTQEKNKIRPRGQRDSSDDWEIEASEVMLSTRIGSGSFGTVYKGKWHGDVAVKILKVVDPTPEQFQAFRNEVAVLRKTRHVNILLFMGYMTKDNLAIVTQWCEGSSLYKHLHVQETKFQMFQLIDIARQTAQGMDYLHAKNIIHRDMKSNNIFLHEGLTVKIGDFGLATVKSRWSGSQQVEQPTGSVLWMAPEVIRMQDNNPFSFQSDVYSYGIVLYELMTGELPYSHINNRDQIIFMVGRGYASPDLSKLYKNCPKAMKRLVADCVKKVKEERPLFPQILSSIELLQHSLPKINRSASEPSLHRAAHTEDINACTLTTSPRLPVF

Row | SMILES | IC50 [1] [nM] | IC50 [2] [nM] | IC50 [3, 7] [nM] | IC50 [4, 8] [nM] | IC50 ([5]; Homo sapiens, HPAF-II) [nM] | IC50 [6] [nM] | IC50 ([3]; MiaPaca-2 cells) [nM] | IC50 ([4]; HCT-116 cells) [nM] | IC50 [5] [nM]
1 | CNCC(=O)Nc1cc(-c2cc(-c3cc(NC(=O)c4cc(C(F)(F)F)cnn4)ccc3C)ccn2)ccn1 [Example 88] | < 100 | < 100 | 100 to 500 | 100 to 500 | 100 to 500 | 1000 to 10000 |  |  | 
2 | Cc1ccc(NC(=O)c2ccc(C(F)(F)F)nn2)cc1-c1cncc(-c2cc(NC(=O)C3CC3)ncn2)c1 [Example 23] | < 100 | < 100 | 1000 to 10000 | 1000 to 10000 | 1000 to 10000 | 1000 to 10000 |  |  | 
3 | Cc1ccc(NC(=O)c2cc(C)c(C)nn2)cc1-c1ccnc(-c2ccnc(NC(=O)C3CC3)c2)c1 [Example 97] | < 100 | < 100 | 1000 to 10000 | 1000 to 10000 | 1000 to 10000 | 1000 to 10000 |  |  | 
4 | Cc1ccc(NC(=O)c2cncc(C(C)(F)F)c2)cc1-c1ccnc(-c2ccnc(NC(=O)C3CC3)c2)c1 [Example 82] | < 100 | < 100 | 500 to 1000 | 100 to 500 | 500 to 1000 | 1000 to 10000 |  |  | 
5 | Cc1ccc(NC(=O)c2cc(C(C)(F)F)cnn2)cc1-c1ccnc(-c2cnn(C)n2)c1 [Example 140] | 100 to 500 | < 100 | 100 to 500 | 100 to 500 | 500 to 1000 | 1000 to 10000 |  |  | 
6 | Cc1ccc(NC(=O)c2cc(C(C)(F)F)cnn2)cc1-c1ccnc(-c2cnsc2)c1 [Example 137] | 100 to 500 | < 100 | 100 to 500 | 100 to 500 | 100 to 500 | 500 to 1000 |  |  | 
7 | Cc1ccc(NC(=O)c2cc(C3CC3)cnn2)cc1-c1cc(NCCO)nc(-c2ccnc(NC(=O)C3CC3)c2)n1 [Example 103] | < 100 | < 100 | 500 to 1000 | < 100 | 500 to 1000 | 1000 to 10000 |  |  | 
8 | CONc1cc(-c2cc(-c3cc(NC(=O)c4cc(C(F)(F)F)cnn4)ccc3C)ccn2)ccn1 [Example 128, N-(3-(2′-(methoxyamino)-[2,4′-bipyridin]-4-yl)-4-methylphenyl)-5-(trifluoromethyl)pyridazine-3-carboxamide] | 100 to 500 | 100 to 500 | 100 to 500 | 100 to 500 | 100 to 500 | 500 to 1000 |  |  | 
9 | CCNc1cc(-c2cc(-c3cc(NC(=O)c4cc(C(F)(F)F)cnn4)ccc3C)ccn2)ccn1 [Example 95] | 100 to 500 | 100 to 500 | 100 to 500 | 100 to 500 | 100 to 500 | 500 to 1000 |  |  | 
10 | Cc1cc(-c2cc(NC(=O)c3cc(C(F)(F)F)cnn3)cnc2C)cc(-c2ccnc(NC(=O)C3CC3)c2)n1 [Example 35] | < 100 | < 100 | 1000 to 10000 | 1000 to 10000 | 1000 to 10000 | 1000 to 10000 |  |  | 
11 | Cc1ccc(NC(=O)c2cc(Cl)cnn2)cc1-c1ccnc(-c2ccnc(NC(=O)C3CC3)c2)c1 [Example 40] | < 100 | < 100 | 500 to 1000 | 100 to 500 | 500 to 1000 | 500 to 1000 |  |  | 
12 | CC(=O)Nc1cc(-c2cc(-c3cc(NC(=O)c4cc(C(F)(F)F)cnn4)ccc3C)ccn2)ccn1 [Example 93] | < 100 | < 100 |  |  |  | 1000 to 10000 | 100 to 500 | < 100 | < 100
13 | Cc1ccc(NC(=O)c2cc(C(F)(F)F)cnn2)cc1-c1cncc(-c2cc(NC=O)ncn2)c1 [Example 124] | < 100 | < 100 | 100 to 500 | 500 to 1000 | 500 to 1000 | 500 to 1000 |  |  | 
